Drawing on paper doi:10.1101/2025.06.04.657800v3, “Advancing Ligand Binding Affinity Prediction with Cartesian Tensor-Based Deep Learning” (biorxiv, 2025), this text covers IC50 and Kd for three compounds.

Experiment [1] concerns the target T1, ENPP1 (Homo sapiens, UniProt P22413).
T1 construct: purified ENPP1 protein for PTS, enzyme assay and SPR
T1 sequence (P22413 1-925): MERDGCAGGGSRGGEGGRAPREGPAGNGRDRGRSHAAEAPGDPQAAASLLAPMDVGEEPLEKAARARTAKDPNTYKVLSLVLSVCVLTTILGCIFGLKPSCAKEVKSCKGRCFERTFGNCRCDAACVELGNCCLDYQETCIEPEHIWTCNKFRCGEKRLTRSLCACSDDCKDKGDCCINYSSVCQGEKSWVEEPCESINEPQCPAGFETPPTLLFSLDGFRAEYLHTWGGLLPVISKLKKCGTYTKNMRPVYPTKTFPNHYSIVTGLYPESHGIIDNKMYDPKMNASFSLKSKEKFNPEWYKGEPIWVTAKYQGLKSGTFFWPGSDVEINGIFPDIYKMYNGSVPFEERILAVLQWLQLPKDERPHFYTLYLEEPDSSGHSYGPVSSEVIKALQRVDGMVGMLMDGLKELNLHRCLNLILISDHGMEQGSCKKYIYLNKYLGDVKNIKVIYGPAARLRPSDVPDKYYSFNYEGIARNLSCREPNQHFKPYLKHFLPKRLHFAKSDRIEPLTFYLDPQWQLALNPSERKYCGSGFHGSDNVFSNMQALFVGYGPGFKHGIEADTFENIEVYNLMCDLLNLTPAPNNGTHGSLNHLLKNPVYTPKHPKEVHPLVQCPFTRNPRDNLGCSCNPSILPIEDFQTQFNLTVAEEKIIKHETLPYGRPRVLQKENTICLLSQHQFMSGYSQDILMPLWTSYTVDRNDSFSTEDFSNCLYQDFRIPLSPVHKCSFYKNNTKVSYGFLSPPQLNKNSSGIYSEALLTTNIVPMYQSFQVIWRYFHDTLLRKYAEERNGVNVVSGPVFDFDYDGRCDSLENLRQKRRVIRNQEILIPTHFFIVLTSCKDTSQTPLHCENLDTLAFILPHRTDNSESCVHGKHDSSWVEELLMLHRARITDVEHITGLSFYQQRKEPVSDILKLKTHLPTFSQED
Put plainly: in vitro enzyme activity assay. It is filed as biochemical.

Experiment [2] deals with T1, ENPP1. Put plainly: surface plasmon resonance. It is filed as binding.
The target of experiment [3] is T2, ALDH1B1 (Homo sapiens, UniProt P30837).
T2 construct: purified ALDH1B1 protein, wild type and alanine mutants
T2 sequence (P30837 18-517): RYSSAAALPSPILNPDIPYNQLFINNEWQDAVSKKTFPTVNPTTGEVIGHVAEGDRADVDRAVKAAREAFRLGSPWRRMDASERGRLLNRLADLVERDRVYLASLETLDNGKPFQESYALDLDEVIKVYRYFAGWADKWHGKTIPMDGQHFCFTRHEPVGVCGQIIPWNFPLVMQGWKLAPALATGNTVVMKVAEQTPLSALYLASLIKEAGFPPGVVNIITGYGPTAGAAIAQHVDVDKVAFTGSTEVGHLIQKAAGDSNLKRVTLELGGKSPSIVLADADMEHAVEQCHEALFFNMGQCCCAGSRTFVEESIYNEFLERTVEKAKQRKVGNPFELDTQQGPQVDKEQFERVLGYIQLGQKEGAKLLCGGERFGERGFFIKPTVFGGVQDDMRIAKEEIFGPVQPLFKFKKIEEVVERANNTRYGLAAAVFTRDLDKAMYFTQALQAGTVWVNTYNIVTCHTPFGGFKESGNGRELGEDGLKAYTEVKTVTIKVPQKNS
Put plainly: surface plasmon resonance. It is filed as binding. Background: Surface plasmon resonance follows binding to a sensor surface in real time, without labels.

Experiment [4] concerns the target T2, ALDH1B1. Put plainly: in vitro enzyme activity assay. The experiment is classed as biochemical.

As for `COc1cccc(F)c1-c1nc(C(=O)Nc2ccccc2N2CCC(NS(N)(=O)=O)CC2)cn2ccnc12` [A2], the midpoint of inhibition against ENPP1 [1], the IC50, lay at 2280 nM. In addition, binding on ENPP1 [2] was characterised by a dissociation constant (Kd) of 1030 nM.
`Fc1cc(F)c2c(c1)[C@@H]1C=CC[C@@H]1[C@H](c1cccnc1)N2` [B1] came in with a Kd on ALDH1B1 [3] of 15.2 nM. This compound yielded an IC50 at ALDH1B1 [4] of 20 nM.
For `Fc1cc(F)c2c(c1)[C@H]1C=CC[C@H]1[C@@H](c1cccnc1)N2` [B2] the same measures were 1210 nM and 5570 nM.

In general, IC50 refers to the concentration at which inhibition is half-maximal. One may read the Kd as the free concentration of one partner at which half of the binding sites on the other are occupied at equilibrium, for simple one-to-one binding. A higher Kd goes with lower affinity.
